Consider 1 molecule from US9402821B2, “Methods and pharmaceutical compositions for treatment of cystic fibrosis” (INSERM (Institut National de la sante et de la Recherche …, priority 2012, dated 2016).

Assay [1] has as its target T1, CFTR (Homo sapiens, UniProt P13569). Briefly: CFTR maturation by Western blot of membrane extracts. Format: cell-based. Conditions: for Ratio CFTR C/C + B (%): HeLa CFTR WT, Ctr. 65.1. Details: expressed in transfected cells. How it is done: (§1) B. Chloride activity in HeLa Wt cells was measured by MQAE assay, after 3 h of treatment by NSAID (500 μM) or diluent. CFTR activity was expressed in rate of UFA/sec, calculated by difference between ((Ft−F0)/t) with CFTR induction and ((Ft−F0)/t) without CFTR induction. […] C. Primary culture of human nasal epithelial cell (HNEC) grown on Snapwell filters (air-liquid interface) were exposed basolaterally to sulindac (500 μM) or vehicle for 2 h and immediately mounted into a voltage-clamp system to bioelectric measurements. Short circuit current was measured with addition of amiloride to evaluated amiloride sensitive transport or with forskolin and IBMX for induced cAMP-dependent Cl secretion.
To study the CFTR protein present at the cell membrane, a protocol of purification by differential centrifugations was used. CFTR wt and delta F508 HeLa cells (2×10^5 cells/cm^2) were lysed with hypotonic lysis buffer (10 mM de KCl, 1 mM de MgCl2, 10 mM Hepes pH 7, 4 and protease inhibitor). Mechanic lysis of cells was realized with minimum 10 strokes of a 26G syringe. Samples were centrifuged 10 min at 3000 g to eliminate cellular fragments and nuclear fraction in the pellet. Then supernatant was centrifuged 45 min at 50 000 g. The pellets with cellular membrane were resolubilized in RIPA buffer.
Aliquots of membrane cell extracts (30 μg protein) were separated by 7% SDS-PAGE and transferred on PVDF membrane. The western blots were probed with mouse monoclonal antibodies specific for CFTR (MM13-4, Millipore) 2 h at room temperature.
For orientation: A western blot detects proteins with antibodies after separation by electrophoresis.

Assay [2] addresses T1, CFTR. Briefly: Short circuit current, cAMP-dependent Cl secretion (forskolin + IBMX) in HNEC. It is filed as cell-based. Details: Nasal polyps were obtained from non-CF requiring surgery for their nasal polyposis; endogenous in cells; host or cells: primary human nasal epithelial cells (HNEC) from nasal polyps of non-CF patients. Conditions: primary HNEC, air-liquid interface, 500 μM basolateral, 2 h, mean SEM of five filters. As to the method: as §1
Two cell models were used to the interface air-liquid model for ionic efflux assays by short circuit current and to dose the basolateral IL-8 secretion. Calu-3 are derived from lung adenocarcinoma and are able to polarized and express a high rate of endogenous CFTR. […] Transepithelial resistance and transepithelial potential difference were measured every 3 days using a microvoltmeter (World Precision Instruments, Astonbury, UK).
Cells were grown at 37° C. in a 5% CO2 incubator in DMEM with Glutamax (Invitrogen) and 10% fetal bovine serum (SVF). […] The effects of treatment in HNEC cultures on snapwell inserts were evaluated between days 10 and 16. […]

T1 sequence (P13569 whole entry): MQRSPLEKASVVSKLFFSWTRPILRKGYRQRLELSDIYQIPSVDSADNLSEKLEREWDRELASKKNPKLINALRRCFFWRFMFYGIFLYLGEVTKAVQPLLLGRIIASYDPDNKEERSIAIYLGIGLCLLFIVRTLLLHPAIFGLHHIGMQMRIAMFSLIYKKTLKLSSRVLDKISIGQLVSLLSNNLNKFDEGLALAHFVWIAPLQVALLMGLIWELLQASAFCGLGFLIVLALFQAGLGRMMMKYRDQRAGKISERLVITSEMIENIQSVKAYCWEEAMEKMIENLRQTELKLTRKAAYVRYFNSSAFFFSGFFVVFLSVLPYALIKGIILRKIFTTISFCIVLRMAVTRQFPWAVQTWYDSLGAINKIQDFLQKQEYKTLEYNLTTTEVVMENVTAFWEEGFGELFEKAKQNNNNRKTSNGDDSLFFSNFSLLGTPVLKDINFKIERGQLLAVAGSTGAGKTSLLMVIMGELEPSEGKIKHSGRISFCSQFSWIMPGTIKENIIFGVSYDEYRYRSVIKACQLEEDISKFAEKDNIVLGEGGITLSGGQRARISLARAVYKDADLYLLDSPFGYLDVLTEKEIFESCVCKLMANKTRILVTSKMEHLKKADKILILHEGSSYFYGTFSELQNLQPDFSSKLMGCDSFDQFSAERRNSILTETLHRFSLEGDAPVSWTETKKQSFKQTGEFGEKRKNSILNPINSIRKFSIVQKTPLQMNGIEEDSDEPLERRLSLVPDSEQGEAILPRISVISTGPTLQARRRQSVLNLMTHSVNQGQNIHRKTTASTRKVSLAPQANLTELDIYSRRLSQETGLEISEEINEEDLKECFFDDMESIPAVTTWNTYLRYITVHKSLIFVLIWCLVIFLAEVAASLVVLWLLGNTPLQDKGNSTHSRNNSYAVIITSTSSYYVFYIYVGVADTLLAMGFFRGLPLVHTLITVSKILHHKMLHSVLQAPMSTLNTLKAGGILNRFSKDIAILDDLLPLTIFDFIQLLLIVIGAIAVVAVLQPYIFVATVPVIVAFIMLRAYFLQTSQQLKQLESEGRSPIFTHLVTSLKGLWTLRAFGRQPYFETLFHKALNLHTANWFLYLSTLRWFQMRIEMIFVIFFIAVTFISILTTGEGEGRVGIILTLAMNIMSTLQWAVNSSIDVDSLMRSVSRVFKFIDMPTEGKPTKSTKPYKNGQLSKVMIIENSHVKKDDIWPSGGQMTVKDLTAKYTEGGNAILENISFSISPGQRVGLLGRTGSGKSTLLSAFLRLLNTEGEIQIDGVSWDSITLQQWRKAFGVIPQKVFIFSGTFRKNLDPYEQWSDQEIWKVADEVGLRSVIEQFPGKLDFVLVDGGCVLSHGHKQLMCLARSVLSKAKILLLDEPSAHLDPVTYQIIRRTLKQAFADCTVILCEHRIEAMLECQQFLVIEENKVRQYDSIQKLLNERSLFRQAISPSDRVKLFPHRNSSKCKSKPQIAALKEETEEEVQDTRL

Consider `CC1=C(CC(=O)O)c2cc(F)ccc2/C1=C\c1ccc([S+](C)[O-])cc1` (centres unmarked) [sulindac, (Z)-5-fluoro-2-methyl-1-[p-(methylsulfinyl)benzylidene]-indene-3-acetic acid], for which the “Ratio CFTR C/C + B (%)” value on CFTR [1] (250 μM) was determined as 77.7%; at CFTR [1] (500 μM), 81.5%. Moreover, the “mature form of CFTR (Western blot)” value at CFTR [1] (WT-CFTR HeLa cells, 500 μM) is given as “significant increase of mature form of CFTR”. Further, the “increase of CFTR activity (short circuit current, forskolin + IBMX)” value at CFTR [2] is “increase of CFTR activity”; on CFTR [2] (listed as Sulindac), 46.35%.
